# Source: PMC10384183, “Silver(I) and Copper(II) 1,10-Phenanthroline-5,6-dione Complexes as Promising Antivirulence Strategy against Leishmania: Focus on Gp63 (Leishmanolysin)” (Tropical Medicine and Infectious Disease, 2023)
# Read-outs that look alike come from different tables or passages of the source. Where a SMILES comes first, the peptide text is derived from it. The star is where a group is joined. AMC = Cc1cc(=O)oc2cc(N*)ccc12; Cbz = O=C(OCc1ccccc1)*
# B1: oryzacystatin I (protein, UniProt P09229 27-140, looked up)
# Cysteine proteinase inhibitor …: EAHRAGGEGEEKMSSDGGPVLGGVEPVGNENDLHLVDLARFAVTEHNKKANSLLEFEKLVSVKQQVVAGTLYYFTIEVKEGDAKKLYEAKVWEKPWMDFKELQEFKPVDASANA
# Columns and labels:
# [1] = tested on: cell-associated metallo-type peptidases (gp63); assay: gp63 proteolytic activity of cell extracts of treated promastigotes; assay type: cell-based, Leishmania amazonensis; conditions: promastigotes treated 24 h, IC50 and 2 × IC50; Z-Phe-Arg-AMC; versus untreated cells
# Experimental: After that, promastigotes were washed and processed to evaluate both gp63 activity and gp63 protein levels.
# For gp63 proteolytic activity, initially, whole parasite cellular extracts were obtained by repeated freeze/thawing cycles using 10^6 viable cells in PBS containing 1% CHAPS (3-[(3-cholamidopropyl) dimethylammonium]-1-propanesulfonate), pH 7.0. […] The gp63 proteolytic activity was determined as previously described using the cleavage of the fluorogenic substrate Z-Phe-Arg-AMC.
# [2] = tested on: L. amazonensis promastigotes and THP-1 human macrophages; assay: Promastigotes-macrophage interaction (association index); assay type: cell-based, Leishmania amazonensis; set-up: key: % infected macrophages × amastigotes per macrophage
# Experimental: The human leukemia monocytic cell line (THP-1) was maintained in 25-cm^2 tissue culture flasks with RPMI 1640 medium (Sigma-Aldrich, St. Louis, MO, USA) supplemented with 10% FBS at 37 °C in an atmosphere containing 5% CO2. To perform interaction experiments, THP-1 cells were seeded in 24-well plates at a density of 2 × 10^5 cells/well and then differentiated into macrophages by treatment with phorbol-12-myristate-13-acetate (PMA; 40 ng/mL) (Sigma-Aldrich) for 48 h. Then, the plates were washed twice with sterile PBS (pH 7.2) to remove PMA and a fresh RPMI 1640 medium was added. At the same time, L. amazonensis promastigotes were treated with the IC50 or 2 × IC50 values of the test compounds for 24 h. After this period, the parasites were allowed to infect the mammalian cells (10 parasites per macrophage) for 24 h at 37 °C and 5% CO2, in the absence or presence of 10 µg soluble gp63. Then, the cultures were washed with PBS to remove non-internalized parasites, fixed with methanol and stained with Giemsa. The percentage of infected macrophages was determined by randomly counting 200 cells on each of triplicate coverslips using a bright-field microscope. The association index was obtained by multiplying the percentage of infected macrophages by the number of amastigotes per macrophage.
# secreted gp63 [3] = target: T1, secreted gp63 (Leishmania amazonensis, UniProt Q27673)
# Experimental: (§1) L. amazonensis promastigotes (10^9 cells) were resuspended in 2 mL of sterile isotonic PBS supplemented with 2% glucose and incubated for 3 h at both 26 °C (invertebrate host temperature) and 37 °C (mammalian host temperature). After this interval, parasite cells were removed by centrifugation and the supernatant (named PBS-glucose-conditioned supernatant) was passed over a 0.22-μm sterilizing membrane (Millipore, São Paulo, Brazil). The protein concentration was quantified by the method described by Lowry et al. [35], using bovine serum albumin (BSA) as standard.
# (§2) To perform this, the reaction mixture containing 10 μg protein, 10 µM substrate and 50 mM glycine-NaOH buffer, pH 10.0, was incubated in the absence or presence of different concentrations of Ag-phendione (ranging from 40 to 0.625 μM) and Cu-phendione (ranging from 1000 to 15.62 μM). Fluorescence was measured using a SpectraMax Gemini XPS fluorescence microplate reader (Molecular Devices, Silicon Valley, CA, USA) at an excitation wavelength of 380 nm and an emission wavelength of 460 nm. […] The inhibitory constant (Ki) value was calculated using a derivation of the Michaelis–Menten equation employing GraphPad Prism 8.
# [4] = tested on: L. amazonensis promastigotes; set-up: method as in PMID 36678418; conditions: 72 h of parasite-drug contact; cited from earlier work
# [5] = tested on: L. amazonensis amastigotes; set-up: method as in PMID 36678418; conditions: amastigotes in THP-1 macrophages; cited from earlier work
# LasB = target: LasB; set-up: method as in PMID 31428062; conditions: cited from earlier work
# [6] = tested on: L. braziliensis gp63, membrane-associated form; set-up: method as in PMID 34363115; conditions: cited from earlier work
# [7] = tested on: L. braziliensis promastigotes and murine macrophages; set-up: method as in PMID 34363115; conditions: promastigotes pre-treated for 1 h; cited from earlier work
# L. braziliensis = tested on: L. braziliensis; set-up: method as in doi:10.1016/j.ejmcr.2022.100093; conditions: hamsters; cited from earlier work
# secreted gp63 [8] = target: T1, secreted gp63; assay: Detection of gp63 activity using fluorogenic substrate Z-Phe-Arg-AMC (kinetics, classical inhibitors); assay type: biochemical; set-up: endogenous in cells; host or cells: Leishmania amazonensis promastigotes; 0.22-µm filtered PBS-glucose-conditioned supernatant; conditions: for effect on hydrolysis of Z-Phe-Arg-AMC by gp63: 1 h, alkaline pH
# Experimental: The enzymatic activity of secreted gp63 was evaluated by the cleavage of the fluorogenic substrate Z-Phe-Arg-AMC. A 5 mM stock solution of the fluorogenic substrate was prepared in DMSO. The reaction was initiated by adding different substrate concentrations (2.5 µM, 5.0 µM, 10 µM and 20 µM) to gp63 (20 µg protein) in a total volume of 100 µL of 50 mM glycine-NaOH buffer, pH 10.0 [38]. At the same time, the titration of the amount of gp63 was also performed. In this sense, different concentrations of gp63 (ranging from 0.156 to 20 µg) were added to 10 µM Z-Phe-Arg-AMC substrate in a total volume of 100 µL of 50 mM glycine-NaOH buffer, pH 10.0. […] The reaction mixture was incubated at 37 °C for 1 h and the assays were controlled for self-release of the fluorophore in the same time interval. Proteolytic activity was expressed as fluorescence arbitrary units (FAU). Apparent Km and Vmax values were calculated using a computerized non-linear regression from the data obtained from the Michaelis–Menten equation (GraphPad Prism 8).
# secreted gp63 [9] = target: T1, secreted gp63; assay: Gelatin-SDS-PAGE zymography of gp63 proteolysis; assay type: biochemical; set-up: endogenous in cells; host or cells: Leishmania amazonensis promastigotes; 0.22-µm filtered PBS-glucose-conditioned supernatant; conditions: 10 mM, pH 10.0, 48 h, 37 °C
# Experimental: Proteolytic activity was assayed by SDS-PAGE containing 0.1% gelatin (Sigma-Aldrich, St. Louis, MO, USA) incorporated into the gel as the proteinaceous substrate. Briefly, 10 micrograms of proteins present in the PBS-glucose-conditioned supernatant were added to the SDS-PAGE sample buffer (125 mM Tris, pH 6.8, 4% SDS, 20% glycerol and 0.002% bromophenol blue) and subsequently subjected to electrophoresis, which was processed at 200 V/20 mA, for 2 h at 4 °C. Subsequently, SDS was removed by incubation of the gels with 2.5% Triton X-100 (Sigma-Aldrich, St. Louis, MO, USA) for 1 h at room temperature under constant agitation. The gels were incubated for 48 h at 37 °C in 50 mM glycine-NaOH buffer, pH 10.0, to promote proteolysis in the absence and in the presence of classical proteolytic inhibitors as follows: 10 mM phen, 10 mM phenylmethylsulphonyl fluoride (PMSF; Sigma-Aldrich, St. Louis, MO, USA) and 10 µM trans-epoxysuccinyl L-leucylamido-(4-guanidino) butane (E-64; Sigma-Aldrich, St. Louis, MO, USA). Finally, the gels were stained with 0.2% Coomassie Brilliant Blue R-250 (Sigma-Aldrich, St. Louis, MO, USA) in methanol–acetic acid–water (50:10:40) and destained in a solution containing methanol–acetic acid–water (5:10:85). The molecular masses of the peptidases were estimated by comparison with the mobility of molecular mass standards (Thermo Fisher Scientific, Waltham, MA, USA).
# papain = tested on: papain; set-up: method as in PMID 8907521; conditions: cited from earlier work
# secreted gp63 [10] = target: T1, secreted gp63; assay: biochemical
# Experimental: as §1, §2
# [11] = promastigotes pre-treated 24 h with 2 × IC50 value, in the presence of 10 µg gp63-rich supernatant
# [12] = promastigotes pre-treated 24 h with 2 × IC50 value, without gp63-rich supernatant
# [13] = promastigotes pre-treated 24 h with IC50 value, in the presence of 10 µg gp63-rich supernatant
# [14] = promastigotes pre-treated 24 h with IC50 value, without gp63-rich supernatant
# T1 sequence (Q27673 100-597): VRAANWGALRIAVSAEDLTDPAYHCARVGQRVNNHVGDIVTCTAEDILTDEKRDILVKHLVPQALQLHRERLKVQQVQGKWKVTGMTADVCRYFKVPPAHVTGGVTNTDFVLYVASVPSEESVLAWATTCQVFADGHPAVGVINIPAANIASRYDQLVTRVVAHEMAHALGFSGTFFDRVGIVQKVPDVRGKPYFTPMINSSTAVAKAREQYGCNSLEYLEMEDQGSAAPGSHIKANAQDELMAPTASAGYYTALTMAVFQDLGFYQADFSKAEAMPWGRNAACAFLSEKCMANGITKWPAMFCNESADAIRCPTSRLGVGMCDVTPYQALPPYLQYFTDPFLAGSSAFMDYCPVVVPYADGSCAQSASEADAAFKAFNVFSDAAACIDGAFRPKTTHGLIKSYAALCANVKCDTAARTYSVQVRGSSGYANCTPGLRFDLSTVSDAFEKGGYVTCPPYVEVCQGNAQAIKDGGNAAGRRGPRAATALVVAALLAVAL
molecule,measurement,setting,value
"O.O.O.O.O=C1C(=O)c2cccnc2-c2ncccc21.O=C1C(=O)c2cccnc2-c2ncccc21.O=C1C(=O)c2cccnc2-c2ncccc21.[Cu+2].[O-][Cl+3]([O-])([O-])[O-].[O-][Cl+3]([O-])([O-])[O-] [Cu-phendione, [Cu(phendione)3](ClO4)2.4H2O]",proteolytic capacity of cell-associated metallo-type peptidases reduced to,[1],approximately 48%
same,association index (AI),[2]; [11],64.6
same,association index (AI),[2]; [12],54.8
same,association index (AI),[2]; [13],76.5
same,association index (AI),[2]; [14],63.1
same,IC50,"secreted gp63 [3]; secreted gp63 10 µg, 10 µM Z-Phe-Arg-AMC, glycine-NaOH pH 10.0, 37 °C, 1 h",163 µM
same,Ki,"secreted gp63 [3]; secreted gp63, Z-Phe-Arg-AMC, glycine-NaOH pH 10.0",27.1 µM
same,IC50,[4],0.0075 µM
same,IC50,[5],0.035 µM
same,Ki,LasB,0.09 µM
same,reduction of proteolytic activity,[6]; 0.1 μg/mL,65%
same,reduction of proteolytic activity,[6]; 1 μg/mL,80%
same,reduction of the Leishmania-macrophage interaction,[7],44.4%
same,"protective action (paw lesion, parasite number in paw and lymph nodes)",L. braziliensis,excellent protective action
"c1cnc2c(c1)ccc1cccnc12 [Phen, 1,10-phenanthroline]",effect on hydrolysis of Z-Phe-Arg-AMC by gp63,secreted gp63 [8]; inhibitor at 10 mM,strong inhibition of the proteolytic activity
same,effect on proteolytic bands around 66 kDa,secreted gp63 [9],inhibited
"CC(C)C[C@H](NC(=O)[C@H]1O[C@@H]1C(=O)O)C(=O)NCCCCN=C(N)N (relative stereo) [E-64, trans-epoxysuccinyl L-leucylamido-(4-guanidino) butane]",effect on hydrolysis of Z-Phe-Arg-AMC by gp63,secreted gp63 [8]; inhibitor at 10 µM,did not significantly change the enzymatic activity
"oryzacystatin I1 [OCII, reference compound]",proteolytic activity of papain restored after electrophoresis,papain,~100%
"O=C1C(=O)c2cccnc2-c2ncccc21.O=C1C(=O)c2cccnc2-c2ncccc21.[Ag+].[O-][Cl+3]([O-])([O-])[O-] [Ag-phendione, [Ag(phendione)2]ClO4]",proteolytic capacity of cell-associated metallo-type peptidases reduced to,[1],approximately 55%
same,association index (AI),[2]; [11],77.3
same,association index (AI),[2]; [12],48.2
same,association index (AI),[2]; [13],88.1
same,association index (AI),[2]; [14],60.6
same,reduction of proteolytic activity,[6]; 1 μg/mL,68%
same,reduction of the Leishmania-macrophage interaction,[7],approximately 51.4%
same,"protective action (paw lesion, parasite number in paw and lymph nodes)",L. braziliensis,excellent protective action
"O=S(=O)(F)Cc1ccccc1 [PMSF, phenylmethylsulphonyl fluoride]",effect on hydrolysis of Z-Phe-Arg-AMC by gp63,secreted gp63 [8]; inhibitor at 10 mM,did not significantly change the enzymatic activity
"O=C1C(=O)c2cccnc2-c2ncccc21 [Phendione, 1,10-Phenanthroline-5,6-dione]",Ki,LasB,0.38 µM
same,reduction of proteolytic activity,[6]; 1 μg/mL,67%
same,IC50,secreted gp63 [10],1490 µM
same,Ki,secreted gp63 [10],745 µM
Cc1cc(=O)oc2cc(NC(=O)C(CCCN=C(N)N)NC(=O)C(Cc3ccccc3)NC(=O)OCc3ccccc3)ccc12 (stereo not drawn) [Z-Phe-Arg-AMC] (Cbz-Phe-Arg-{AMC}; configuration not given here),Vmax,"secreted gp63 [8]; cleavage of Z-Phe-Arg-AMC by released gp63, pH 10.0, 37 °C",0.064 µM/s
same,Km,"secreted gp63 [8]; cleavage of Z-Phe-Arg-AMC by released gp63, pH 10.0, 37 °C, read-out: apparent Km",14.2 µM
B1,inhibition of enzymatic activity of papain by the complex after electrophoresis,papain,about 80%
